Data reported in patent US5780675A, “Deoxygossylic compounds” (The University of New Mexico, priority 1995, dated 1998).
“Also recorded” adds a separate entry of the source. Read-outs that look alike come from different tables or passages of the source.

Experiments:
[1] = Cytotoxicity: changes in cell morphology or loss of monolayer adherence in HT46c cells; format: cell-based; settings: human; for MCC at 72 h: HT46c cells, 3 days, lowest concentration with detectable morphology change or loss of monolayer adherence, read-out: threshold cytotoxicity
[2] = system: HT46c (HeLaT4+) cells; assay: as above; format: cell-based; settings: for cytotoxicity (in words): HT46c cells, compared with BDGA and/or GIL where stated; for toxicity (in words): 5.0 μM
[3] = system: H9/HIV-IIIB strain of the HIV-1 virus; assay: Inhibition of HIV replication, focal immunoassay (foci reduction) in HT46c cells; format: cell-based; settings: for anti-HIV activity (in words): in vitro, compared with BDGA and/or GIL where stated; for anti-HIV activity (in words) / EC50: H9/HIV-IIIB in HT46c cells; for reduction in foci (in words): 5 μM, GIL and BDGA compared; for EC50: Human immunodeficiency virus 1, 72 h, 3 days at 37° C.
Protocol: 1,1'-bisdeoxygossypol (BDG), 1,1'-bisdeoxygossylic acid (BDGA), 8-deoxyhemigossypol (DHG) and 8-deoxyhemigossylic acid (DHGA) were synthesized and tested for their ability to inhibit the replication of HIV in vitro. The EC50 for BDGA was <1 μM and its threshold cytotoxicity was approximately 20 μM. […] Like BDGA, the Ec50 for GIL was <1 μM. […] BDG, on the other hand, was ineffective at 1 μM and destroyed >80% of the cell monolayer at 5 μM.
The anti-HIV assay used was based on a published procedure (J. Virol. 62:3779-3788, 1988) using HT46c (HeLaT4+) cells as host cells for the H9/HIV-IIIB strain of the HIV-1 virus. The cells were seeded into 6-well plates, 5×10^4 cells/well, in RPMI 1640 with 10% FBS and allowed to attach overnight. After treatment of the wells with DEAE-dextran, stock virus was added at a concentration that produces 100-200 foci/well on day 3 in positive control wells. Test compounds were added, and plates incubated for 3 days at 37° C., 5% CO2. Monolayers were fixed with methanol and wells analyzed with a focal immunoassay (FIA). The primary reagent used in the FIA was a polyclonal antibody preparation of sera from AIDS patients. The secondary reagent was a goat anti-human IgG antibody tagged with horseradish peroxidase. The substrate was 3-amino-9-ethylcarbazole in sodium acetate buffer with hydrogen peroxide. Each compound was tested at concentrations of 0.01, 0.1, 1.0, 5.0 and 20 μM. GIL was tested as a standard for comparison.

[4] = biological target: T1, human serum albumin (Homo sapiens, UniProt P02768); assay: Binding to human serum albumin, fluorescence quenching titration; settings: 25° C., pH 7.4, read-out: Dissociation constant (Kd) for binding to human serum albumin
T1 sequence (P02768 25-609): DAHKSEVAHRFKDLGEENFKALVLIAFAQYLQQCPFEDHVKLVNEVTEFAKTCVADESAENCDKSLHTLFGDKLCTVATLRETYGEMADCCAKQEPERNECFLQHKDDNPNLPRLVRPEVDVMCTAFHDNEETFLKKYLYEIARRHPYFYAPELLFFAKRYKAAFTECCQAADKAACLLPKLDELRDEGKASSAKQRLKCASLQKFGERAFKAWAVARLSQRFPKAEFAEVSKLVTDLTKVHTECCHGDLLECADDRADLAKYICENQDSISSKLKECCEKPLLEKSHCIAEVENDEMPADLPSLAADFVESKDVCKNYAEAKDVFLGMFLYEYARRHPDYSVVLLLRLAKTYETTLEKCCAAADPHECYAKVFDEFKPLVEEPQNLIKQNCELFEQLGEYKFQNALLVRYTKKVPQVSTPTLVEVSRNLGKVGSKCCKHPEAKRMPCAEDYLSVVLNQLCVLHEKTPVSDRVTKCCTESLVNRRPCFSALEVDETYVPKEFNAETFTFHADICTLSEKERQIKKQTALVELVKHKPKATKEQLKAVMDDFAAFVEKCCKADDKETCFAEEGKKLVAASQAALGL
Protocol: Table I below lists the dissociation constants (Kds) for binding of compounds 1-6 to human serum albumin. The Kd for gossypol was determined by multiple methods as reported in FEBS Lett. 157:28-30, 1983. The Kds for compounds 2-6 were determined by fluorescence quenching titrations.
These experiments were carried out at 25° C. in 2 mL volumes of 0.2M potassium phosphate buffer (pH 7.4) containing 0.1M sodium chloride. Aliquots of a 1 mM stock solution of test compound in DMSO were added to a 10 μM solution of human serum albumin in the buffer. Fluorescence was measured with a Perkin Elmer model LS 50 luminescence spectrometer. The Kds were determined by plotting the reciprocal of free ligand concentration versus the reciprocal of fractional quenching. This plot provides -1/Kd as the x-intercept. Details of the calculations employed are set forth in J. Pharm. Sci. 77:237-240 (1988).

[5] = biological target: T1, human serum albumin; settings: gossypol, determined by multiple methods as reported in FEBS Lett. 157:28-30, 1983; read-out: Dissociation constant (Kd) for binding to human serum albumin; cited from earlier work
[6] = previous or background findings; GIL compared with gossypol; cited from earlier work
[7] = system: HIV; settings: previously found, in vitro, similar assays; cited from earlier work

Cc1cc2c(C(C)C)c(O)c(O)c(C=O)c2cc1-c1cc2c(C=O)c(O)c(O)c(C(C)C)c2cc1C [BDG, 6,6',7,7'-Tetrahydroxy-3,3'-dimethyl-5,5'-bis(1-methylethyl) [2,2'-binaphthalene]-8,8'-dicarboxaldehyde]
cytotoxicity at 5 µM ([1]; ht46c cells, 5 μM, read-out: cell monolayer destroyed): > 80%
cytotoxicity (in words) [2]: much more cytotoxic than BDGA
anti-HIV effect (in words) ([3]; 1 μM): ineffective
anti-HIV activity (in words) [3]: less effective against HIV
Kd [4]: 1200 nM

Cc1ccc2c(C(=O)O)c(O)c(O)c(C(C)C)c2c1 [DHGA, 2,3-dihydroxy-6-methyl-4-(1-methylethyl)-1-naphthoic Acid]
cytotoxicity (in words) [2]: very low cytotoxicity
effect on cell morphology (in words) ([2]; even at 20 μM): no observable effect on viral replication or cell morphology
effect on viral replication (in words) ([3]; even at 20 μM): no observable effect on viral replication
anti-HIV activity (in words) [3]: ineffective against HIV
Kd [4]: 5280 nM

Cc1ccc2c(C=O)c(O)c(O)c(C(C)C)c2c1 [DHG, 2,3-dihydroxy-6-methyl-4-(1-methylethyl)-1-naphthaldehyde]
MCC at 72 h [1]: 5 µM
cytotoxicity (in words) [2]: more cytotoxic
anti-HIV activity (in words) [3]: some anti-HIV activity; also recorded: less active
Kd [4]: 660 nM

Cc1cc2c(C(C)C)c(O)c(O)c(C(=O)O)c2cc1-c1cc2c(C(=O)O)c(O)c(O)c(C(C)C)c2cc1C [BDGA, 6,6',7,7'-Tetrahydroxy-3,3'-dimethyl-5,5'-bis(1-methylethyl) [2,2'-binaphthalene]-8,8'-dicarboxylic Acid]
MCC at 72 h [1]: ~20 µM
toxicity (in words) [2]: No toxicity was noted
monolayer destruction (in words) ([2]; 20 μM): Some signs of monolayer destruction
reduction in foci (in words) [3]: same reduction in foci
EC50 [3]: < 1000 nM
anti-HIV activity (in words) [3]: approximately as effective as GIL
Kd [4]: 1500 nM

Cc1cc2c(C(C)C)c(O)c(O)c(C=O)c2c(O)c1-c1c(C)cc2c(C(C)C)c(O)c(O)c(C=O)c2c1O [gossypol]
Kd [5]: 90 nM
cytotoxicity (in words), previous findings [6]: significantly cytotoxic at effective dosage levels

Cc1cc2c(C(C)C)c(O)c(O)c3c2c(c1-c1c(C)cc2c(C(C)C)c(O)c(O)c4c2c1OC4=N)OC3=N [GIL, reference compound]
anti-HIV activity relative to gossypol (in words) [7]: more active; also recorded: more effective than gossypol
toxicity (in words) [2]: No toxicity was noted
cytotoxicity (in words), previous findings [6]: less cytotoxic than gossypol
reduction in foci (in words) [3]: same reduction in foci
EC50 [3]: < 1000 nM
Kd [4]: 3000 nM
